# Molecular target: T1, Human serum albumin (HSA) (Homo sapiens, UniProt P02768)
# T1 construct: gene ALB
# Assay: intrinsic fluorescence quenching, excitation […] nm, emission […] nm
# Assay type: binding
# Details: 295 K, PBS pH 7.4, 0.5 uM HSA, no warfarin; double-log; n 0.8430; quenching described as dynamic; Sudlow's site I (IIA)
# T1 sequence (P02768 25-609): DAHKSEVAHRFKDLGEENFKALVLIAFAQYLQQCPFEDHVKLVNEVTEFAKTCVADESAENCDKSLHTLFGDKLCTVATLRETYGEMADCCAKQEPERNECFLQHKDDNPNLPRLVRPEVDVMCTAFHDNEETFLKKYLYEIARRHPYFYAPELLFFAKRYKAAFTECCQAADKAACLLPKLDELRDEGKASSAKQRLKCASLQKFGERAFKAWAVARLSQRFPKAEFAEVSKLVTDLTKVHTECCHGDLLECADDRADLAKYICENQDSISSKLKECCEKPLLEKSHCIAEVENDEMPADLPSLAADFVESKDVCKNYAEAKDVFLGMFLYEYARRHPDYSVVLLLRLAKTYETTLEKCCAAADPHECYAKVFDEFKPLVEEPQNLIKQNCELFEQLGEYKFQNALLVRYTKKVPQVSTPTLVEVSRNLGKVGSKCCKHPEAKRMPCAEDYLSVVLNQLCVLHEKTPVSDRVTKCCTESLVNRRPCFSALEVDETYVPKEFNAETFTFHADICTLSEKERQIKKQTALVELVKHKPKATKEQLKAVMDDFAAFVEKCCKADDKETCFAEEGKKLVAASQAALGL
smiles,measurement,value
"CC(C)=CCc1cc(/C=C/C(=O)O)cc(CC=C(C)C)c1O [Artepillin C, 3,5-diprenyl-4-hydroxycinnamic acid]",KA,908000 L/mol
